The molecules below were run against Mouse Brain GABA Receptors (assay: In vitro assay of ability to bind mouse brain GABA receptors (3H-EBOB displacement, mouse brain membranes)). Conditions: inhibition of 3H-EBOB binding to mouse brain membranes; NI = non-inhibitor.
Procedure: Mouse brains were obtained from carbon dioxide-asphyxiated Swiss-Webster mice, washed with phosphate-buffered saline, and used either fresh or after storage at −80° C. for up to 10 months. Unless specified, all preparation steps were performed at 0-4° C. For each preparation, 20 brains were suspended in about 40 mL of 0.32 M sucrose and homogenized for about 2 minutes, using a Tissumizer™ homogenizer equipped with a SDT-100EN probe (available from Tekmar-Dohrmann, Cincinnati, Ohio) running at 50% of its maximum speed. The extract was centrifuged for about 5 min at about 1000×g to pellet intact brain tissue. The supernatant was retained and the pellet washed with an additional 40 mL of 0.32 M sucrose and centrifuged at 1000×g for about 5 minutes. The 1000×g supernatants were combined and centrifuged at about 10,000×g for about 20 min to pellet membranes. The 10,000×g supernatant was discarded and the pellet was resuspended in about 20 mL of water containing 1 mM EDTA. The sample was dialyzed two times for about 3 hours each against about 3 L of water. The sample was then centrifuged at about 25,000×g for about 30 min to pellet the membranes. After centrifugation, the supernatant was discarded and the pellet recovered. The protein concentration of the pellet was determined by the Bio-Rad Protein Assay (available from Bio-Rad Laboratories, Hercules, Calif.) using bovine serum albumin as a standard. The membranes were aliquoted and stored at −80° C. for up to 6 months before use.
Mouse brain membranes were prepared as described above from dissected mouse brains. Test compounds were dissolved in dimethylsulfoxide (DMSO) at concentrations ranging from about 2 nM to about 100 mM. About 1 μL of a dissolved test compound was dispensed into a well of a 96-well polystyrene plate. About 100 μL of ice cold assay buffer (10 mM phosphate, 300 mM NaCl, pH 7.5) containing 5.2 nM 4′-Ethynyl-4-n-[2,3-^3H2]propylbicycloorthobenzoate (^3H-EBOB, 38 Ci/mmol, available from NEN Life Science Products, Boston, Mass.) was added to the well, followed by about 100 μL of ice cold assay buffer containing about 0.25-0.5 mg/ml mouse brain membranes. Control wells were prepared the same way except that the mouse brain membranes were omitted from the “negative” wells, and the test compounds were omitted from the “positive” wells. The samples were incubated for about 45 min at about 24° C. and then filtered on a 0.1% (w/v) polyethylenimine-soaked glass fiber Filtermat A (available from EG&G Wallac Inc., Gaithersburg, Md.) followed by four 100 mL rinses of cold assay buffer using a Harvester 96® cell harvester (available from Tomtec, Orange, Conn.). The filtermat was air dried and radioactivity bound to the filtermat was detected with either a 1450 MicroBeta® Trilux scintillation counter (available from EG&G Wallac Inc.) or a Topcount NXT™ scintillation counter (available from Packard Instrument Co., Meriden, Conn.) using standard methods.
Specific binding was considered to be the difference between total ^3H bound to the mouse brain membranes in the absence of any inhibitors and nonspecific ^3H bound to the mouse brain membranes upon the addition of 5 μM unlabeled EBOB. The average radioactivity contained in the “negative” wells was subtracted from each of the assay wells. […] This value was calculated by plotting the data on a log-linear plot and either dropping a line to the x-axis perpendicular to a line drawn to the y-axis at approximately 50% inhibition of ^3H-EBOB binding, or by fitting the data to the formula I=XY/(X+Z), in which I is the percent inhibition of ^3H-EBOB binding, X is the inhibitor concentration, Y is the maximum percent inhibition of ^3H-EBOB binding observed, and Z is the calculated IC50.

Cn1nc(C(F)(F)F)cc1OS(=O)(=O)c1ccc(Cl)c(Cl)c1 [compound 2] was tested. Which IC50 did it give?
The IC50 was 9 µM.

How did the IC50 turn out when O=S(=O)(Oc1cc(C(F)(F)F)nn1-c1ccccc1)c1ccc(F)c(Cl)c1 [compound 14] was run?
The IC50 was 12 µM.

How did the IC50 turn out when Cc1cc(S(=O)(=O)Oc2cc(C(F)(F)F)nn2C)ccc1Cl [compound 7] was run?
Its IC50 is 11 µM.

How did the IC50 turn out when Cn1nc(C(F)(F)F)cc1OS(=O)(=O)c1cc(Cl)c(Cl)cc1Cl [compound 1] was run?
Its IC50 is 8.4 µM.

With Cn1nc(C(F)(F)F)cc1OS(=O)(=O)c1ccc(F)cc1Cl [compound 20, 1-methyl-3-(trifluoromethyl)pyrazol-5-yl 2-chloro-4-fluorobenzenesulfonate] as the molecule, how does the IC50 read?
Its IC50 is 3.3 µM.

Cn1nc(C(F)(F)F)cc1OS(=O)(=O)c1ccc(Cl)cc1Cl [compound 12, 1-methyl-3-(trifluoromethyl)pyrazol-5-yl 2,4-dichlorobenzenesulfonate] was tested. Which IC50 did it give?
The IC50 was 4.9 µM.

For Cc1nn(-c2ccccc2)c(OS(=O)(=O)c2ccc(F)cc2Cl)c1Cl [compound 18], which IC50 is on record?
The IC50 was 1 µM.

How did the IC50 turn out when Cn1nc(C(F)(F)F)cc1OS(=O)(=O)c1cccc(F)c1 [compound 8] was run?
The IC50 was 0.16 µM.

For Cn1nc(C(F)(F)F)cc1OS(=O)(=O)c1ccc(Br)c(Br)c1 [compound 6], which IC50 is on record?
Its IC50 is 12.5 µM.

With Cc1cc(F)ccc1S(=O)(=O)Oc1cc(C(F)(F)F)nn1C [compound 11] as the molecule, how does the IC50 read?
The IC50 was 3.6 µM.

For Cn1nc(C(C)(C)C)cc1OS(=O)(=O)c1ccc(Cl)cc1Cl [compound 17], which IC50 is on record?
The IC50 was 5.4 µM.

For Cn1nc(C(F)(F)F)cc1OS(=O)(=O)c1ccc(F)c(F)c1 [compound 10], which IC50 is on record?
The IC50 was 1 µM.

Which IC50 does the source give for Cn1nc(C(F)(F)F)cc1OS(=O)(=O)c1ccc2ccccc2c1 [compound 13] here?
Its IC50 is 3 µM.

With Cn1nc(C(F)(F)F)cc1OS(=O)(=O)c1cc(Cl)ccc1Cl [compound 3] as the molecule, how does the IC50 read?
The IC50 was 2 µM.

Cn1nc(C(F)(F)F)cc1OS(=O)(=O)c1c(F)cccc1F [compound 9] was tested. Which IC50 did it give?
Its IC50 is 6 µM.

Which IC50 does the source give for Cn1nc(C(C)(C)C)cc1OS(=O)(=O)c1ccc(F)cc1Cl [compound 19] here?
The IC50 was 1.3 µM.

For Cc1c(Cl)cccc1S(=O)(=O)Oc1cc(C(F)(F)F)nn1C [compound 16], which IC50 is on record?
The IC50 was 12 µM.

For Cn1nc(C(F)(F)F)cc1OS(=O)(=O)c1cccc(Cl)c1 [compound 4], which IC50 is on record?
Its IC50 is 0.5 µM.

With Cn1nc(C(F)(F)F)cc1OS(=O)(=O)c1ccc(C(F)(F)F)cc1Cl [compound 5, 1-methyl-3-(trifluoromethyl)pyrazol-5-yl 2-chloro-4-(trifluoromethyl)benzenesulfonate] as the molecule, how does the IC50 read?
Its IC50 is 14 µM.

Reference: patent US6506784B1, “Use of 1,3-substituted pyrazol-5-yl sulfonates as pesticides” (3-Dimensional Pharmaceuticals, Inc., priority 1999, dated 2003)
